Laboratory results as given in US11259522B2, “Control of resistant pests” (priority 2017, dated 2022).
≈ marks a conversion by molar mass, not a printed value. Where “and” joins values, the source holds several entries; their conditions need not be identical. Equal entries are not always repeated. Where two headings read alike, the source gives them in different places.

Tests used:
[1] = tested on: Aedes aegypti Liverpool strain (insecticide susceptible, LVP) L3 larvae; test: Mosquito larval dose response assay, LVP strain; details: read-out: Lethal Concentration (LC50) LVP Strain
[2] = tested on: Aedes aegypti PRS Puerto Rican strain (synthetic pyrethroid resistant) L3 larvae; test: Mosquito larval dose response assay, PRS strain; details: read-out: Lethal Concentration (LC50) PRS Strain
[3] = tested on: Rhyzopertha dominica strain QRD1440 (resistant to OP protectants and pyrethroids); test: Grain protectant bioassay on treated wheat, resistant lesser grain borer; details: Example 5, QRD1440, 1 ppm on wheat, replicates A, B, C
[4] = tested on: M. persicae (green peach aphid) insecticide-susceptible population; test: Leaf dip bioassay, green peach aphid, susceptible population; format: in vivo, Myzus persicae
Procedure: (§1) Each colony was maintained separately on bok choi plants ([…]) within an exclusion cage in a constant temperature room at 24° C. with a photoperiod of 16:8 LD.
(§2) Laboratory bioassays were used to determine the efficacy of flavesone against M. persicae following the leaf dip method described in Moores et al. (1994, Pesticide Biochemistry and Physiology, 49, 114-120). A pilot study was first conducted which confirmed that the leaf dip method was appropriate to elicit a clear dose response for Flavocide 500EW against M. persicae, and to determine the appropriate rate range and timing of mortality assessments (scored at 24, 48, 72 & 96 hours) (data not shown).
(§3) Bioassays were then conducted to assess the efficacy of flavesone against a susceptible and resistant population of M. persicae, and to calculate LC values. The efficacy of a conventional insecticide, pirimicarb, was tested for comparison. Nine concentrations of flavesone ranging from 1×10^−3 to 10 times the proposed field rate (Table 15), and six concentrations of pirimicarb were serially diluted and tested, along with a water control, against the susceptible and resistant aphid populations. Leaf discs (25 mm diameter) cut from bok choi leaves were submerged for 1 second in the insecticide solutions, or in the water control, and placed adaxial side up on 10 g/L agar in 35 mm petri dishes. Six replicate leaf discs were prepared per treatment. Once leaves were air-dry, eight M. persicae nymphs were transferred to each insecticide-dipped leaf disc using a fine-haired paintbrush.
(§4) After aphid introduction, each petri dish was inverted onto a lid containing a 25 mm diameter filter paper to control humidity. All petri dishes were then placed into an incubator held at 18° C.±2° C. with a photoperiod of 16:8 LD cycle. At 48 & 96 hours, aphids were scored as alive (vibrant and moving freely), dead (not moving over a 5 second period), or incapacitated (inhibited movement).
(§5) Dose-response curves were generated by plotting percentage mortality against log concentration. Mortality data was analysed using a logistic regression model with random effects. Logistic regression is suited for the analysis of binary response data (i.e. dead/alive) with the random effect component of the model controlling for the non-independence of mortality scores within replicates. […] Population differences were tested by comparing the change in model deviance with and without the population factor (different regression intercepts for each population). Differences in regression slopes between populations were tested by comparing the change in model deviance with and without the population×dose interaction term.

[5] = tested on: M. persicae (green peach aphid) population resistant to carbamates and synthetic pyrethroids; test: Leaf dip bioassay, green peach aphid, resistant population; format: in vivo, Myzus persicae; details: Resistant population; 0.025-2500.0 mg a.i./L; 48 and 96 hours
Procedure: as §1, §2, §3, §4, §5

[6] = Susceptible population, 96 hours exposure

SMILES	LC50 ([1]; 24 h) [µg/mL]	LC50 ([1]; 48 h) [µg/mL]	LC50 ([1]; 72 h) [µg/mL]	LC50 ([2]; 24 h) [µg/mL]	LC50 ([2]; 48 h) [µg/mL]	LC50 ([2]; 72 h) [µg/mL]	F1 Progeny count No. dead/total ([3]; further 6 weeks)	14 Day adult mortality No. dead (total) [3]	LC50 ([4]; Myzus persicae, foliar, 96 h, read-out: LC50 (mg a.i./L)) [µg/mL]	LC90 (mg a.i./L) [4, 6] [mg a.i./L]	LC99 (mg a.i./L) [4, 6] [mg a.i./L]	mortality observed [5]
CC1(C)[C@H](C(=O)O[C@H](C#N)c2cccc(Oc3ccccc3)c2)[C@@H]1C=C(Br)Br [Deltamethrin, deltamethrin, reference compound]	0.0119 (≈ 0.0236 µM)	0.0049 (≈ 0.0097 µM)	0.0037 (≈ 0.00732 µM)	0.0522 (≈ 0.103 µM)	0.0501 (≈ 0.0992 µM)	0.0412 (≈ 0.0816 µM)	0/142 and 0/79 and 2/292	1/50 (2×) and 0/50				
CC1(C)C(C=C(Cl)Cl)C1C(=O)OCc1cccc(Oc2ccccc2)c1 (stereo not drawn) [Permethrin, permethrin]	0.0219 (≈ 0.056 µM)	0.0162 (≈ 0.0414 µM)	0.0166 (≈ 0.0424 µM)	0.164 (≈ 0.42 µM)	0.15 (≈ 0.385 µM)	0.128 (≈ 0.327 µM)						
Cc1nc(N(C)C)nc(OC(=O)N(C)C)c1C [Pirimicarb, pirimicarb, reference compound]									18.5 (≈ 77.6 µM)	78.9	384	Very low mortality
